ChEMBL document CHEMBL4715792, “In Vivo and In Vitro Optimization of Screening Antimalarial Hits toward Lead Molecules for Preclinical Development” (J Med Chem, 2016)
Converted amounts (≈) assume the structure as drawn. Values belong to the compound of their own block, whether it stands above or below them.

Tests used:
[1] = Intrinsic clearance in mouse liver microsomes; assay type: ADME, Microsome
[2] = system: Plasmodium falciparum; assay: Antimalarial activity against Plasmodium falciparum 3D7; assay type: functional, organism-based
[3] = Aqueous solubility of compound; assay type: physicochemical
[4] = system: Plasmodium falciparum; assay: Antimalarial activity against drug resistant Plasmodium falciparum W2; assay type: functional, organism-based
[5] = system: Plasmodium falciparum; assay: Antimalarial activity against drug resistant Plasmodium falciparum K1; assay type: functional, organism-based
[6] = system: Plasmodium falciparum; assay: Antimalarial activity against drug resistant Plasmodium falciparum NF5; assay type: functional, organism-based
[7] = system: Plasmodium falciparum; assay: Antimalarial activity against drug resistant Plasmodium falciparum TM90C2A; assay type: functional, organism-based
[8] = system: Plasmodium berghei; assay: Antimalarial activity against Plasmodium berghei infected in mouse assessed as reduction in parasitemia at 1 mg/kg, po dosed 4 times; assay type: functional
[9] = system: Plasmodium berghei; assay: Antimalarial activity against Plasmodium berghei infected in orally dosed mouse assessed as reduction in parasitemia; assay type: functional; conditions: po
[10] = system: Plasmodium falciparum; assay: Antimalarial activity against drug resistant Plasmodium falciparum D6; assay type: functional, organism-based
[11] = system: Plasmodium falciparum; assay: Antimalarial activity against drug resistant Plasmodium falciparum 7G8; assay type: functional, organism-based
[12] = system: Plasmodium falciparum; assay: Antimalarial activity against drug resistant Plasmodium falciparum V1/S; assay type: functional, organism-based
[13] = Selectivity index, ratio of CC50 for human MRC5 cells to EC50 for antimalarial activity against Plasmodium falciparum 3D7; assay type: toxicity; conditions: read-out: Selectivity Index

Intrinsic clearance [1]: 3.4 mL/min/g
EC50 [2]: 700 nM
Structure (SMILES): Cc1ccc(-c2cc(C(=O)NCCN3CCCC3)c3cc(F)ccc3n2)cc1

Intrinsic clearance [1]: 8.6 mL/min/g
solubility [3]: 36 µM (≈ 12.9 µg/mL)
Structure (SMILES): Cc1ccc(-c2cc(C(=O)Nc3cccnc3)c3cc(F)ccc3n2)cc1

Structure (SMILES): O=C(NCCN1CCCC1)c1cc(-c2ccc(CN3CCOCC3)cc2)nc2ccc(F)cc12 [CABAMIQUINE]
Intrinsic clearance [1]: < 0.9 mL/min/g
EC50 [2]: 1 nM
EC50 [4]: < 1 nM
EC50 [5]: < 1 nM
EC50 [6]: < 1 nM
EC50 [7]: < 1 nM
inhibition in vivo at 1 mg/kg [8]: > 99%
ED90 [9]: 0.3 mg/kg
EC50 [10]: < 1 nM
EC50 [11]: < 1 nM
EC50 [12]: < 1 nM

Intrinsic clearance [1]: >= 5 ml/min/g
solubility [3]: ≤ 39 µM
Structure (SMILES): Cc1ccc(-c2cc(C(=O)Nc3cccnc3)c3cc(Br)ccc3n2)cc1
selectivity ratio [13]: > 100
